# Source: patent US20240116910A1, “Heterocycles as WIP1 Inhibitors” (PMV Pharmaceuticals, Inc., priority 2022, published 2024)
# Biological target: recombinant His-tag Wip1(2-420) protein (amino acids #2-420) (Homo sapiens (Human), UniProt O15297)
# Assay: Wip1(2-420) phosphatase enzyme FDP assay
# Format: biochemical
# Conditions: fluorescein diphosphate (FDP) substrate, RT 2 hours, fluorescence Ex485/Em535; read-out: WIP1 (Truncated 2-420) FDP Assay: IC50
# recombinant His-tag Wip1(2-420) protein (amino acids #2-420), sequence (O15297 2-420): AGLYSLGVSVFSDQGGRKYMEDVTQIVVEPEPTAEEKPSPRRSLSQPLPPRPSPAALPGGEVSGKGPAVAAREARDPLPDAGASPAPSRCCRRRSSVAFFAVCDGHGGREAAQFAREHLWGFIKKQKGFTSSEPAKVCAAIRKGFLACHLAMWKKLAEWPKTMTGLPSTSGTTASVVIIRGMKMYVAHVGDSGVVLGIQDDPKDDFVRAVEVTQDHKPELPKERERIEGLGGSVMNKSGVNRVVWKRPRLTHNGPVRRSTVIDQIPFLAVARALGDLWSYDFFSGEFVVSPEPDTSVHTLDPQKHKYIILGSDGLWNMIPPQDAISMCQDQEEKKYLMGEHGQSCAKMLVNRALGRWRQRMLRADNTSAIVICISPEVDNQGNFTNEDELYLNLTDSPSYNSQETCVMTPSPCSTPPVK
row,Structure (SMILES),IC50 [nM]
1,"Cc1cc(NC(=O)[C@H](CCC(C)(C)C)NC(=O)c2ccc([C@H](C)Nc3cc(Cl)cnc3C)s2)ccn1 [Compound 157, (2S)-2-({5-[(1S)-1-[(5-chloro-2-methylpyridin-3-yl)amino]ethyl]thiophen-2-yl}formamido)-5,5-dimethyl-N-(2-methylpyridin-4-yl)hexanamide]",9
2,"COC[C@@H](Nc1cc(Cl)cnc1C)c1ccc(C(=O)N[C@@H](CC2CCCC2)C(=O)NC2CC2)s1 [Compound 158, (2S)-2-({5-[(1R)-1-[(5-chloro-2-methylpyridin-3-yl)amino]-2-methoxyethyl]thiophen-2-yl}formamido)-3-cyclopentyl-N-cyclopropylpropanamide]",1000
3,"COC[C@H](Nc1cc(Cl)cnc1C)c1ccc(C(=O)N[C@@H](CC2CCCC2)C(=O)NC2CC2)s1 [Compound 159, (2S)-2-({5-[(1S)-1-[(5-chloro-2-methylpyridin-3-yl)amino]-2-methoxyethyl]thiophen-2-yl}formamido)-3-cyclopentyl-N-cyclopropylpropanamide]",13
4,"Cc1ncc(Cl)cc1N[C@@H](C)c1ccc(C(=O)N[C@@H](CCC(C)(C)C)C(=O)NC2CC2)s1 [Compound 161, (2S)-2-({5-[(1S)-1-[(5-chloro-2-methylpyridin-3-yl)amino]ethyl]thiophen-2-yl}formamido)-N-cyclopropyl-5,5-dimethylhexanamide]",11
5,"Cc1ncc(Cl)cc1N[C@H](Cn1cccn1)c1ccc(C(=O)N[C@@H](CC2CCCC2)C(=O)NC2CC2)s1 [Compound 165, (2S)-2-({5-[(1R)-1-[(5-chloro-2-methylpyridin-3-yl)amino]-2-(1H-pyrazol-1-yl)ethyl]thiophen-2-yl}formamido)-3-cyclopentyl-N-cyclopropylpropanamide]",378
6,"Cc1ncc(Cl)cc1N[C@@H](Cn1cccn1)c1ccc(C(=O)N[C@@H](CC2CCCC2)C(=O)NC2CC2)s1 [Compound 166, (2S)-2-({5-[(1S)-1-[(5-chloro-2-methylpyridin-3-yl)amino]-2-(1H-pyrazol-1-yl)ethyl]thiophen-2-yl}formamido)-3-cyclopentyl-N-cyclopropylpropanamide]",7
7,"Cc1ncc(Cl)cc1N[C@@H](C)c1ccc(C(=O)N[C@@H](CC2CCCC2)C(=O)Nc2ccc3c(c2)N(C)CCC3)s1 [Compound 167, (2S)-2-({5-[(1S)-1-[(5-chloro-2-methylpyridin-3-yl)amino]ethyl]thiophen-2-yl}formamido)-3-cyclopentyl-N-(1-methyl-1,2,3,4-tetrahydroquinolin-7-yl)propanamide]",11
8,"Cc1ncc(Cl)cc1N[C@@H](C)c1ccc(C(=O)N[C@@H](CC2CCCC2)C(=O)NC2CCc3ncccc3C2)s1 (stereo partly drawn) [Compound 169, (2S)-2-({5-[(1S)-1-[(5-chloro-2-methylpyridin-3-yl)amino]ethyl]thiophen-2-yl}formamido)-3-cyclopentyl-N-(5,6,7,8-tetrahydroquinolin-6-yl)propanamide]",9
9,"Cc1ncc(Cl)cc1N[C@H](Cc1cnn(C)c1)c1ccc(C(=O)N[C@@H](CC2CCCC2)C(=O)NC2CC2)s1 [Compound 170, (2S)-2-({5-[(1R)-1-[(5-chloro-2-methylpyridin-3-yl)amino]-2-(1-methyl-1H-pyrazol-4-yl)ethyl]thiophen-2-yl}formamido)-3-cyclopentyl-N-cyclopropylpropanamide]",217
10,"CC(Nc1cc(Cl)cnc1C(N)=O)c1ccc(C(=O)N[C@@H](CC2CCCC2)C(=O)NC23CC(C2)C3)s1 (stereo partly drawn) [Compound 172, 3-{[1-(5-{[(1S)-1-({bicyclo[1.1.1]pentan-1-yl}carbamoyl)-2-cyclopentylethyl]carbamoyl}thiophen-2-yl)ethyl]amino}-5-chloropyridine-2-carboxamide]",10
11,"CC(Nc1cc(Cl)cnc1C(N)=O)c1ccc(C(=O)N[C@@H](CC2CCCC2)C(=O)Nc2cnn(C)c2)s1 (stereo partly drawn) [Compound 173, 5-chloro-3-{[1-(5-{[(1S)-2-cyclopentyl-1-[(1-methyl-1H-pyrazol-4-yl)carbamoyl]ethyl]carbamoyl}thiophen-2-yl)ethyl]amino}pyridine-2-carboxamide]",8
12,"Cc1ncc(Cl)cc1N[C@@H](C)c1ccc(C(=O)N[C@H](C(=O)NC2CC2)C2CCCCC2)s1 [Compound 174, (2S)-2-({5-[(1S)-1-[(5-chloro-2-methylpyridin-3-yl)amino]ethyl]thiophen-2-yl}formamido)-2-cyclohexyl-N-cyclopropylacetamide]",37
13,"COCC(Nc1cc(Cl)cnc1C)c1ccc(C(=O)N[C@@H](CC2CCCC2)C(=O)NC2CC2)s1 (stereo partly drawn) [Compound 176, (2S)-2-[(5-{1-[(5-chloro-2-methylpyridin-3-yl)amino]-2-methoxyethyl}thiophen-2-yl)formamido]-3-cyclopentyl-N-cyclopropylpropanamide]",21
14,"Cc1ncc(Cl)cc1N[C@@H](C)c1ccc(C(=O)N[C@@H](CC2CCCC2)C(=O)Nc2ccc3ncc(F)cc3c2)s1 [Compound 178, (2S)-2-({5-[(1S)-1-[(5-chloro-2-methylpyridin-3-yl)amino]ethyl]thiophen-2-yl}formamido)-3-cyclopentyl-N-(3-fluoroquinolin-6-yl)propanamide]",5
15,"Cc1ncc(Cl)cc1N[C@@H](C)c1ccc(C(=O)N[C@@H](CC2CC3CC3C2)C(=O)Nc2cnn(C)c2)s1 (stereo partly drawn) [Compound 179, (2S)-3-{bicyclo[3.1.0]hexan-3-yl}-2-({5-[(1S)-1-[(5-chloro-2-methylpyridin-3-yl)amino]ethyl]thiophen-2-yl}formamido)-N-(1-methyl-1H-pyrazol-4-yl)propanamide]",4
16,"COc1cnc2ccc(NC(=O)[C@H](CC3CCCC3)NC(=O)c3ccc([C@H](C)Nc4cc(Cl)cnc4C)s3)cc2c1 [Compound 180, (2S)-2-({5-[(1S)-1-[(5-chloro-2-methylpyridin-3-yl)amino]ethyl]thiophen-2-yl}formamido)-3-cyclopentyl-N-(3-methoxyquinolin-6-yl)propanamide]",4
17,"Cc1ncc(Cl)cc1N[C@@H](c1ccc(C(=O)N[C@@H](CC2CCCC2)C(=O)NC2CC2)s1)C(F)(F)F [Compound 184, (2S)-2-({5-[(1R)-1-[(5-chloro-2-methylpyridin-3-yl)amino]-2,2,2-trifluoroethyl]thiophen-2-yl}formamido)-3-cyclopentyl-N-cyclopropylpropanamide]",131
18,"Cc1ncc(Cl)cc1N[C@H](c1ccc(C(=O)N[C@@H](CC2CCCC2)C(=O)NC2CC2)s1)C(F)(F)F [Compound 185, (2S)-2-({5-[(1S)-1-[(5-chloro-2-methylpyridin-3-yl)amino]-2,2,2-trifluoroethyl]thiophen-2-yl}formamido)-3-cyclopentyl-N-cyclopropylpropanamide]",61
19,"Cc1ncc(Cl)cc1N[C@@H](c1ccc(C(=O)N[C@@H](CC2CCCC2)C(=O)NC23CC(C2)C3)s1)C(F)(F)F [Compound 186, (2S)-N-{bicyclo[1.1.1]pentan-1-yl}-2-({5-[(1R)-1-[(5-chloro-2-methylpyridin-3-yl)amino]-2,2,2-trifluoroethyl]thiophen-2-yl}formamido)-3-cyclopentylpropanamide]",195
20,"Cc1ncc(Cl)cc1N[C@H](c1ccc(C(=O)N[C@@H](CC2CCCC2)C(=O)NC23CC(C2)C3)s1)C(F)(F)F [Compound 187, (2S)-N-{bicyclo[1.1.1]pentan-1-yl}-2-({5-[(1S)-1-[(5-chloro-2-methylpyridin-3-yl)amino]-2,2,2-trifluoroethyl]thiophen-2-yl}formamido)-3-cyclopentylpropanamide]",37
21,"Cc1ncc(Cl)cc1NC(Cc1cnn(C)c1)c1ccc(C(=O)N[C@@H](CC2CCCC2)C(=O)NC2CC2)s1 (stereo partly drawn) [Compound 188, (2S)-2-[(5-{1-[(5-chloro-2-methylpyridin-3-yl)amino]-2-(1-methyl-1H-pyrazol-4-yl)ethyl}thiophen-2-yl)formamido]-3-cyclopentyl-N-cyclopropylpropanamide]",11
22,"C[C@H](Nc1cc(Cl)cnc1C(F)(F)F)c1ccc(C(=O)N[C@@H](CC2CCCC2)C(=O)NC2CC2)s1 [Compound 189, (2S)-2-({5-[(1S)-1-{[5-chloro-2-(trifluoromethyl)pyridin-3-yl]amino}ethyl]thiophen-2-yl}formamido)-3-cyclopentyl-N-cyclopropylpropanamide]",10
23,"C[C@@H](Nc1cc(Cl)cnc1C(F)(F)F)c1ccc(C(=O)N[C@@H](CC2CCCC2)C(=O)NC2CC2)s1 [Compound 190, (2S)-2-({5-[(1R)-1-{[5-chloro-2-(trifluoromethyl)pyridin-3-yl]amino}ethyl]thiophen-2-yl}formamido)-3-cyclopentyl-N-cyclopropylpropanamide]",224
24,"Cc1ncc(Cl)cc1NC(Cn1cccn1)c1ccc(C(=O)N[C@@H](CC2CCCC2)C(=O)NC2CC2)s1 (stereo partly drawn) [Compound 191, (2S)-2-[(5-{1-[(5-chloro-2-methylpyridin-3-yl)amino]-2-(1H-pyrazol-1-yl)ethyl}thiophen-2-yl)formamido]-3-cyclopentyl-N-cyclopropylpropanamide]",13
25,CC(Nc1cc(Cl)cnc1C(C)(C)C#N)c1ccc(C(=O)N[C@@H](CC2CCCC2)C(=O)NC2CC2)s1 (stereo partly drawn) [Compound 192],408
26,"C[C@@H](Nc1cc(Cl)cnc1C(C)(C)O)c1ccc(C(=O)N[C@@H](CC2CCCC2)C(=O)NC2CC2)s1 [Compound 193, (2S)-2-({5-[(1R)-1-{[5-chloro-2-(2-hydroxypropan-2-yl)pyridin-3-yl]amino}ethyl]thiophen-2-yl}formamido)-3-cyclopentyl-N-cyclopropylpropanamide]",316
27,"C[C@H](Nc1cc(Cl)cnc1C(C)(C)O)c1ccc(C(=O)N[C@@H](CC2CCCC2)C(=O)NC2CC2)s1 [Compound 194, (2S)-2-({5-[(1S)-1-{[5-chloro-2-(2-hydroxypropan-2-yl)pyridin-3-yl]amino}ethyl]thiophen-2-yl}formamido)-3-cyclopentyl-N-cyclopropylpropanamide]",6
